# Measured values from patent US20170065730A1, “COMPOSITION FOR IMAGING ATHEROSCLEROSIS AND METHOD FOR DIAGNOSING ATHEROSCLEROSIS BY USING SAME” (priority 2014, published 2017).
# Tested on: atherosclerotic site of the aorta
# Assay: Fluorescence imaging of aorta sections after ear vein injection of RITC-MSA or RITC
# Assay type: in vivo
# Conditions: cholesterol diet rabbit, 10 minutes after ear vein injection
# Protocol: Ten 12-week-old normal rabbits (New Zealand White rabbits) were used for experiment. They were randomly divided into two groups of 5 rabbits. One group was given a normal diet and the other group was given a diet containing 1% cholesterol. The animals were kept under a standardized condition (21° C., 41-62% humidity) with regular light/dark (10/14 hr) cycles and were given free access to water and feed. 3 months later, after intravenously injecting 1 mCi of ^68Ga-MSA under anesthesia, positron emission tomography was performed on the whole body for 10 minutes from 10 minutes after the injection (FIGS. 5 and 6). On the next day, the rabbits were anesthetized and RITC-MSA (42 μg/0.1 mL) or RITC mixed in 0.9% physiological saline was injected into the ear vein of the rabbits. 10 minutes later, the rabbits were euthanized and the aorta was cut and kept at −20° C. The aorta sections were fixed at room temperature for 30 minutes in a 4% (v/v) buffered formalin solution, washed with cold PBS (pH 7.4), embedded in optimum cutting temperature compound (OCT, Sakura, Tokyo) and kept at −80° C. after a day for tissue penetration. Tissue slices cut to a thickness of […] were mounted on slides together with poly-D-lysine and then kept at room temperature until use after drying at 45° C. in the shade. […]
substance,measurement,value
rhodamine B isothiocyanate [RITC],fluorescence / binding at the atherosclerotic site of the aorta,cannot be observed
